{
  "source": "ChEMBL document CHEMBL1909046",
  "about": "“DrugMatrix in vitro pharmacology data”",
  "key": {"[1]": {"target": "Cytochrome P450 2D6 (Homo sapiens, UniProt P10635)", "sequence (P10635 whole entry)": "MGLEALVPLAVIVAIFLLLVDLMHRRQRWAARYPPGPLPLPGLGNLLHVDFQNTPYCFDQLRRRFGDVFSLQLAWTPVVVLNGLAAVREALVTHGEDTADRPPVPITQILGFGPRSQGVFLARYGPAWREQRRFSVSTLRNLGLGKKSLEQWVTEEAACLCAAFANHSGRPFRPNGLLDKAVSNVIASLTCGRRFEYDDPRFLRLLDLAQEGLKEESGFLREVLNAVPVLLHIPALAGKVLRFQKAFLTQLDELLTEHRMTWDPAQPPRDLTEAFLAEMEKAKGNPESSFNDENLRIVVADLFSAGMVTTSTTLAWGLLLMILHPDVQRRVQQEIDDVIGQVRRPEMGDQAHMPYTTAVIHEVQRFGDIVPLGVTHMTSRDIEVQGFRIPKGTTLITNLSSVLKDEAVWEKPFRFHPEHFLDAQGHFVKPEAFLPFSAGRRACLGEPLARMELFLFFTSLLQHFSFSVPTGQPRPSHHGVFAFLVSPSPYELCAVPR", "conditions": "bti-tn-5b1-4"}, "[2]": {"target": "Nitric oxide synthase 1 (Rattus norvegicus, UniProt P29476)", "sequence (P29476 whole entry)": "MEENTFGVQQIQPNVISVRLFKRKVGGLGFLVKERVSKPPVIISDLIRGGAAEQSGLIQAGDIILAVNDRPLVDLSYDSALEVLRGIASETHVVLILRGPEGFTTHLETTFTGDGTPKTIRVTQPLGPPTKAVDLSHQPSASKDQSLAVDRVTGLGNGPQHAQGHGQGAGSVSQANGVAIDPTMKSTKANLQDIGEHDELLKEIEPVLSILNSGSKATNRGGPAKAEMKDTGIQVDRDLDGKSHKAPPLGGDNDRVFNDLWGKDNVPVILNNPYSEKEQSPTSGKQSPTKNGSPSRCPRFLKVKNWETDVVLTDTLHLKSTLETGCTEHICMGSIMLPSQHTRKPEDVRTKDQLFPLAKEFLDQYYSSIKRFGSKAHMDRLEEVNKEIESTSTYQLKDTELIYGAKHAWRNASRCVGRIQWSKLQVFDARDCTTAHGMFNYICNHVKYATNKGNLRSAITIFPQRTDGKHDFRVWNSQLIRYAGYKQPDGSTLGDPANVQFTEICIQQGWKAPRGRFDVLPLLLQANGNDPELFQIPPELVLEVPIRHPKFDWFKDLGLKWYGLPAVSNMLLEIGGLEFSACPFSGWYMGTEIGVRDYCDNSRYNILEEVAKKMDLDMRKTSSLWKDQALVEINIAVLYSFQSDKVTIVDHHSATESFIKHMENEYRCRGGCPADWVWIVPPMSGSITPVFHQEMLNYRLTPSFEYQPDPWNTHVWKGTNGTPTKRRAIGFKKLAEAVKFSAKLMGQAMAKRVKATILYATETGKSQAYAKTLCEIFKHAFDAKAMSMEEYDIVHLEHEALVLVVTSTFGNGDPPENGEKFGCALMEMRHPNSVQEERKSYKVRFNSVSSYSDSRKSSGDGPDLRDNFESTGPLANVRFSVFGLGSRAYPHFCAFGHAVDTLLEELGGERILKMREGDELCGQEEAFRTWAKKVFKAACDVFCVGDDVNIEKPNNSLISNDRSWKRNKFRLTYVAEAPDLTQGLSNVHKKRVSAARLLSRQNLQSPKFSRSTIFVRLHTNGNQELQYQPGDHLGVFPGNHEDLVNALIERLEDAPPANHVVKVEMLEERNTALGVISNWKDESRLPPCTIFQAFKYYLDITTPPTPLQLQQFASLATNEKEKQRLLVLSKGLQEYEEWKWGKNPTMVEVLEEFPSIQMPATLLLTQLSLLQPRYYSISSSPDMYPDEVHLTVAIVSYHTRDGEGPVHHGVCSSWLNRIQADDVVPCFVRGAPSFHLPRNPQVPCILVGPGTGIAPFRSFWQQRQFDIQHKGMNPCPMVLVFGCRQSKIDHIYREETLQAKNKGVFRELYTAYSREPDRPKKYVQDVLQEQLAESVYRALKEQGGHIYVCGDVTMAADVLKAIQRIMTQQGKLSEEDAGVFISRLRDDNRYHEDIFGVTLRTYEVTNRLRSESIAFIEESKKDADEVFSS", "assay_type": "tissue-based, Cerebellum"}, "[3]": {"assay": "DRUGMATRIX: Sodium/nucleoside co-transporter radioligand binding (ligand: nitrobenzylthioinosine)", "assay_type": "cell membranes, Cavia porcellus, Dunkin-Hartley, Cerebral cortex, Membrane", "conditions": "Not Active = under 50% inhibition at 10 µM"}, "[4]": {"target": "Estrogen receptor beta (Homo sapiens, UniProt Q92731)", "sequence (Q92731 whole entry)": "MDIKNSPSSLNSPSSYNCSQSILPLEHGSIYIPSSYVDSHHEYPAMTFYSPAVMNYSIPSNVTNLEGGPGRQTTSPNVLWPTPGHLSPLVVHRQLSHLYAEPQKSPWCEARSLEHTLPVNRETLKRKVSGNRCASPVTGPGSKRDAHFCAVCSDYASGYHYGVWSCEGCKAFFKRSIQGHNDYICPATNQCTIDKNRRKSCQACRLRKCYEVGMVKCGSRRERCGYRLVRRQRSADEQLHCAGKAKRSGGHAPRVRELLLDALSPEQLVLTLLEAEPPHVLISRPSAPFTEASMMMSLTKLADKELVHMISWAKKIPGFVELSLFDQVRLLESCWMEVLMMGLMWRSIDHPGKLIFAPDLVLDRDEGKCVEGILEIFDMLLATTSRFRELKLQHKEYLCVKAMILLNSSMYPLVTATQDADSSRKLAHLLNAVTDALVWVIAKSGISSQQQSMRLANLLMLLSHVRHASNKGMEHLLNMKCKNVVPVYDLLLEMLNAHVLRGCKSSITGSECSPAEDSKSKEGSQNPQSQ", "conditions": "sf9"}, "[5]": {"target": "Histamine H2 receptor (Homo sapiens, UniProt P25021)", "sequence (P25021 whole entry)": "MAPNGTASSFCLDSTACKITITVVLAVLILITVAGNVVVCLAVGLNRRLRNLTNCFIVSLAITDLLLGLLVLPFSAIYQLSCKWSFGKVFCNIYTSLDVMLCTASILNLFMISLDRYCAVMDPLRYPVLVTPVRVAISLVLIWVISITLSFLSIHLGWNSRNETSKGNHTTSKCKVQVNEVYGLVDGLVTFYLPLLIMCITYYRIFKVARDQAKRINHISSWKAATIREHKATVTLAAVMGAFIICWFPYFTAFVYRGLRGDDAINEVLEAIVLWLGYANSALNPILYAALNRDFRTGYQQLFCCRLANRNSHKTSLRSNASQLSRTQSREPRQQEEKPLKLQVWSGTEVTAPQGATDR", "assay_type": "cell membranes, CHO-K1, Membrane"}, "[6]": {"target": "T1, Adenosine receptor A3 (Homo sapiens, UniProt P0DMS8)", "T1 sequence (P0DMS8 whole entry)": "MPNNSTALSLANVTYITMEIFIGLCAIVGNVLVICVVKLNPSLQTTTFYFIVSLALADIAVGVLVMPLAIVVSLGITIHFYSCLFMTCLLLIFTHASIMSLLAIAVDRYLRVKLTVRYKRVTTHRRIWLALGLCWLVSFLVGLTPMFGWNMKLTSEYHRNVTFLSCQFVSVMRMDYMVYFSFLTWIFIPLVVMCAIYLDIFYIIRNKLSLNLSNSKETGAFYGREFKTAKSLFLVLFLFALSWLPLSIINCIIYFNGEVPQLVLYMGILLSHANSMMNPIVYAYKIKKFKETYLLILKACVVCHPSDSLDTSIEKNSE", "assay_type": "cell membranes, CHO-K1, Membrane"}, "[7]": {"target": "T2, Alpha-2C adrenergic receptor (Homo sapiens, UniProt P18825)", "T2 sequence (P18825 whole entry)": "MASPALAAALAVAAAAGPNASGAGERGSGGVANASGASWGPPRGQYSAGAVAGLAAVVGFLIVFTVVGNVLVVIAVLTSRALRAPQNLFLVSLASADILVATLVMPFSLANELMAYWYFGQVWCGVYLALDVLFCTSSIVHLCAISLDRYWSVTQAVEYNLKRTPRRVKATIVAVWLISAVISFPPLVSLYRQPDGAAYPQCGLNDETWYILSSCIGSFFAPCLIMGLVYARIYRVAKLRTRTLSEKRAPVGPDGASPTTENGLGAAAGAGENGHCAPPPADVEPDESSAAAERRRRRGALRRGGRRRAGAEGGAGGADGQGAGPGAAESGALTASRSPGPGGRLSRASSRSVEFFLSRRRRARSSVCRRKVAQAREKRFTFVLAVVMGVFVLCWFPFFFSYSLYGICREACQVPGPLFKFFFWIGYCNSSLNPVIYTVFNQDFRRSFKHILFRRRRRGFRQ", "assay": "DRUGMATRIX: Adrenergic Alpha-2C radioligand binding (ligand: [3H] MK-912)", "assay_type": "cell membranes, Sf9, Membrane", "conditions": "sf9"}},
  "data": [
    {"smiles": "COc1cc(/C=C/C(=O)O)ccc1O", "note": "[FERULATE]", "values": [
      {"measurement": "IC50", "setting": "[1]", "value": "Not Active"},
      {"measurement": "Ki", "setting": "[1]", "value": "Not Active"},
      {"measurement": "IC50", "setting": "[2]", "value": "Not Active"},
      {"measurement": "IC50", "setting": "[3]", "value": "Not Active"},
      {"measurement": "Ki", "setting": "[3]", "value": "Not Active"},
      {"measurement": "IC50", "setting": "[4]", "value": "Not Active"},
      {"measurement": "IC50", "setting": "[5]; cho-k1", "value": "Not Active"},
      {"measurement": "IC50", "setting": "[6]; cho-k1", "value": "Not Active"},
      {"measurement": "IC50", "setting": "[7]", "value": "Not Active"}
    ]},
    {"smiles": "COc1cc([C@@H]2c3cc4c(cc3[C@H](O)[C@H]3COC(=O)[C@H]23)OCO4)cc(OC)c1OC", "note": "[PODOFILOX]", "values": [
      {"measurement": "IC50", "setting": "[1]", "value": "Not Active"},
      {"measurement": "Ki", "setting": "[1]", "value": "Not Active"},
      {"measurement": "IC50", "setting": "[2]", "value": "Not Active"},
      {"measurement": "IC50", "setting": "[3]", "value": "Not Active"},
      {"measurement": "Ki", "setting": "[3]", "value": "Not Active"},
      {"measurement": "IC50", "setting": "[4]", "value": "Not Active"},
      {"measurement": "IC50", "setting": "[5]; cho-k1", "value": "Not Active"},
      {"measurement": "IC50", "setting": "[6]; cho-k1", "value": "Not Active"},
      {"measurement": "IC50", "setting": "[7]", "value": "Not Active"}
    ]},
    {"smiles": "CC1(COc2ccc(CC3SC(=O)NC3=O)cc2)CCCCC1", "note": "(configuration not stated) [CIGLITAZONE]", "values": [
      {"measurement": "IC50", "setting": "[1]", "value": "Not Active"},
      {"measurement": "Ki", "setting": "[1]", "value": "Not Active"},
      {"measurement": "IC50", "setting": "[2]", "value": "Not Active"},
      {"measurement": "IC50", "setting": "[3]", "value": "Not Active"},
      {"measurement": "Ki", "setting": "[3]", "value": "Not Active"},
      {"measurement": "IC50", "setting": "[4]", "value": "Not Active"},
      {"measurement": "IC50", "setting": "[5]; cho-k1", "value": "Not Active"},
      {"measurement": "IC50", "setting": "[6]; read-out: IC50", "value": 3050, "unit": "nM"},
      {"measurement": "Ki", "setting": "[6]; read-out: Ki", "value": 1720, "unit": "nM"},
      {"measurement": "IC50", "setting": "[7]", "value": "Not Active"}
    ]},
    {"smiles": "Oc1ncnc2[nH]ncc12", "note": "[ALLOPURINOL]", "values": [
      {"measurement": "IC50", "setting": "[1]", "value": "Not Active"},
      {"measurement": "Ki", "setting": "[1]", "value": "Not Active"},
      {"measurement": "IC50", "setting": "[2]", "value": "Not Active"},
      {"measurement": "IC50", "setting": "[3]", "value": "Not Active"},
      {"measurement": "Ki", "setting": "[3]", "value": "Not Active"},
      {"measurement": "IC50", "setting": "[4]", "value": "Not Active"},
      {"measurement": "IC50", "setting": "[5]; cho-k1", "value": "Not Active"},
      {"measurement": "IC50", "setting": "[6]; cho-k1", "value": "Not Active"},
      {"measurement": "IC50", "setting": "[7]", "value": "Not Active"}
    ]},
    {"smiles": "CC(C)Cn1cnc2c(N)nc3ccccc3c21", "note": "[IMIQUIMOD]", "values": [
      {"measurement": "IC50", "setting": "[1]", "value": "Not Active"},
      {"measurement": "Ki", "setting": "[1]", "value": "Not Active"},
      {"measurement": "IC50", "setting": "[2]", "value": "Not Active"},
      {"measurement": "IC50", "setting": "[3]", "value": "Not Active"},
      {"measurement": "Ki", "setting": "[3]", "value": "Not Active"},
      {"measurement": "IC50", "setting": "[4]", "value": "Not Active"},
      {"measurement": "IC50", "setting": "[5]; read-out: IC50", "value": 1510, "unit": "nM"},
      {"measurement": "Ki", "setting": "[5]; read-out: Ki", "value": 1480, "unit": "nM"},
      {"measurement": "IC50", "setting": "[6]; cho-k1", "value": "Not Active"},
      {"measurement": "IC50", "setting": "[7]", "value": "Not Active"}
    ]}
  ]
}
